From PMC5206724, “Insensitivity to pain induced by a potent selective closed-state Nav1.7 inhibitor” (Scientific Reports, 2017)

Key:
[1] = target: T1, hNav1.7 (Homo sapiens, UniProt Q15858); assay: cell-based; conditions: patch clamp method not given; read-out: pIC50 Nav1.7 (converted)
T1 construct: host or cells: HEK293

[2] = target: hNav1.4 (Homo sapiens, UniProt P35499); assay: cell-based; conditions: patch clamp method not given; read-out: pIC50 Nav1.4 (converted)
[3] = target: hNav1.6 (Homo sapiens, UniProt Q9UQD0); assay: cell-based; conditions: patch clamp method not given; read-out: pIC50 Nav1.6 (converted)
[4] = tested on: TTX-resistant sodium current, rat DRG cells; assay: Rat DRG patch clamp, TTX-resistant current; type: cell-based
[5] = tested on: TTX-sensitive current, rat DRG cells; type: cell-based
[6] = tested on: mixed sodium current, rat DRG cells; type: cell-based
[7] = tested on: formalin-induced flinching, rat; conditions: in vivo
[8] = tested on: formalin-induced flinching, morphine-tolerant rats; conditions: rat, in vivo
Procedure: A soft metal band was glued to the plantar side of one hind paw and rats were allowed to acclimate in the test chamber for 30 min. […] The incidence of nociceptive behavior - flinching and shaking of the injected paw was counted by an automated formalin apparatus (University Anesthesia Research and Development Group, Department of Anesthesiology, University of California, San Diego, La Jolla, CA). The number of paw flinches was tallied by minute over 60 min[60]. Total flinches in phase I (0~10 min) and phase II (11~60 min) were calculated.
Male Sprague-Dawley (CD) rats (Charles River, San Diego) ~250–300 g were catheterized intrathecally as described above. The non-indwelling end (PE60) of the catheter was connected to the flow modulator of an osmotic pump (Alzet 2001, 1 μl/h) loaded with morphine or saline vehicle, which underwent priming at 37 °C overnight in sterile saline. The osmotic pump was implanted subcutaneously above the scapula. To induce morphine tolerance, morphine was infused intrathecally by the osmotic pump at a dose of 15 μg/h for 7 days[61]. On day 7 the pumps were extracted and the wounds were closed with the intrathecal catheters left in place. Catheters were flushed with 20 μL of saline.

[9] = tested on: formalin-induced flinching, morphine-tolerant rats; conditions: rat, in vivo; cited from earlier work
[10] = rat, in vivo
[11] = rat, in vivo, iv; cited from earlier work

hNav1.4, sequence (P35499 whole entry): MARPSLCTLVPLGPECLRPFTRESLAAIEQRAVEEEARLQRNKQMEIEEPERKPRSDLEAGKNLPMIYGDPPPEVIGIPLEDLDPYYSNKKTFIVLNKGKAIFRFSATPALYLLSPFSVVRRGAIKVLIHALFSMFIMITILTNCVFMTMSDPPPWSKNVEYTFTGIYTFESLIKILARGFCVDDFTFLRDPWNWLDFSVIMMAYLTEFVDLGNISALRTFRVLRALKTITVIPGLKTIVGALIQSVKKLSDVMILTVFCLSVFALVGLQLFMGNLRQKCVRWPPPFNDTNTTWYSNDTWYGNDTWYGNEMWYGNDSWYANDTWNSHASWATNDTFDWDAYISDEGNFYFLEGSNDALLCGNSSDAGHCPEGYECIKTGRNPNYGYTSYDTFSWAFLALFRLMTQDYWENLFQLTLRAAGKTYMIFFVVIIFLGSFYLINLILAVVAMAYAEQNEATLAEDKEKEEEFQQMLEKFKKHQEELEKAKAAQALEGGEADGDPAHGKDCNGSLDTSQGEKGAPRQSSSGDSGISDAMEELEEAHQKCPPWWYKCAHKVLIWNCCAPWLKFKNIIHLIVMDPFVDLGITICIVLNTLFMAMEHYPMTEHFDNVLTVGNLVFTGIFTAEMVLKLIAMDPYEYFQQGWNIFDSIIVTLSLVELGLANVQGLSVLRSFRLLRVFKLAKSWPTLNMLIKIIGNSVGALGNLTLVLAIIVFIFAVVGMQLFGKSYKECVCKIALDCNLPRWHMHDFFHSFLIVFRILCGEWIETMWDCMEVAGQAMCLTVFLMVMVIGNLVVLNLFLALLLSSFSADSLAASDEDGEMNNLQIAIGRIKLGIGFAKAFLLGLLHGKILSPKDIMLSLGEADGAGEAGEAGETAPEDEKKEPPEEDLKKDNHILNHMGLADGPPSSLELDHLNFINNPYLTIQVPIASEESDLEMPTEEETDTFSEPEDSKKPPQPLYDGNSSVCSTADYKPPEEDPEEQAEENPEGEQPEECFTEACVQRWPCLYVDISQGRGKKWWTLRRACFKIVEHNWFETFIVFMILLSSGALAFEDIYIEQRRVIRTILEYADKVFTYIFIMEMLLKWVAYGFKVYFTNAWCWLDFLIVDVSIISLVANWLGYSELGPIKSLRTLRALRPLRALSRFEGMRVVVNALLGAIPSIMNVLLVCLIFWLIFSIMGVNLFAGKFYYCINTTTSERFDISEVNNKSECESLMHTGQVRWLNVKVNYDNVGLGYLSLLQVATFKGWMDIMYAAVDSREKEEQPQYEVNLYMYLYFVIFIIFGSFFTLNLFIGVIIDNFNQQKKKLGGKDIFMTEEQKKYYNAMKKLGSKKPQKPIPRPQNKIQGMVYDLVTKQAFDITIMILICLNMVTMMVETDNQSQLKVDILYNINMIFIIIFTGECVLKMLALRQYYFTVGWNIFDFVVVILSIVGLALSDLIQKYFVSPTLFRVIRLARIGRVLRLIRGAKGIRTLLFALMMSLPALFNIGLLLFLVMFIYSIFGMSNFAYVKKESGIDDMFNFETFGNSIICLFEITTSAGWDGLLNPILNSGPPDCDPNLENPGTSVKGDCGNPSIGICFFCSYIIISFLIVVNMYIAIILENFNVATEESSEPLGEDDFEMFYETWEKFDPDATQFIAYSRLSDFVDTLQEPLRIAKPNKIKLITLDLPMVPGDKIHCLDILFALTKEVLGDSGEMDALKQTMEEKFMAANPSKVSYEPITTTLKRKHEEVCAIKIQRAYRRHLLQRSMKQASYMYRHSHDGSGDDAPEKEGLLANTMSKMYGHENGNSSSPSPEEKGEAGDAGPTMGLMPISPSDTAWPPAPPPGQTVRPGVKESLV
T1 sequence (Q15858 whole entry): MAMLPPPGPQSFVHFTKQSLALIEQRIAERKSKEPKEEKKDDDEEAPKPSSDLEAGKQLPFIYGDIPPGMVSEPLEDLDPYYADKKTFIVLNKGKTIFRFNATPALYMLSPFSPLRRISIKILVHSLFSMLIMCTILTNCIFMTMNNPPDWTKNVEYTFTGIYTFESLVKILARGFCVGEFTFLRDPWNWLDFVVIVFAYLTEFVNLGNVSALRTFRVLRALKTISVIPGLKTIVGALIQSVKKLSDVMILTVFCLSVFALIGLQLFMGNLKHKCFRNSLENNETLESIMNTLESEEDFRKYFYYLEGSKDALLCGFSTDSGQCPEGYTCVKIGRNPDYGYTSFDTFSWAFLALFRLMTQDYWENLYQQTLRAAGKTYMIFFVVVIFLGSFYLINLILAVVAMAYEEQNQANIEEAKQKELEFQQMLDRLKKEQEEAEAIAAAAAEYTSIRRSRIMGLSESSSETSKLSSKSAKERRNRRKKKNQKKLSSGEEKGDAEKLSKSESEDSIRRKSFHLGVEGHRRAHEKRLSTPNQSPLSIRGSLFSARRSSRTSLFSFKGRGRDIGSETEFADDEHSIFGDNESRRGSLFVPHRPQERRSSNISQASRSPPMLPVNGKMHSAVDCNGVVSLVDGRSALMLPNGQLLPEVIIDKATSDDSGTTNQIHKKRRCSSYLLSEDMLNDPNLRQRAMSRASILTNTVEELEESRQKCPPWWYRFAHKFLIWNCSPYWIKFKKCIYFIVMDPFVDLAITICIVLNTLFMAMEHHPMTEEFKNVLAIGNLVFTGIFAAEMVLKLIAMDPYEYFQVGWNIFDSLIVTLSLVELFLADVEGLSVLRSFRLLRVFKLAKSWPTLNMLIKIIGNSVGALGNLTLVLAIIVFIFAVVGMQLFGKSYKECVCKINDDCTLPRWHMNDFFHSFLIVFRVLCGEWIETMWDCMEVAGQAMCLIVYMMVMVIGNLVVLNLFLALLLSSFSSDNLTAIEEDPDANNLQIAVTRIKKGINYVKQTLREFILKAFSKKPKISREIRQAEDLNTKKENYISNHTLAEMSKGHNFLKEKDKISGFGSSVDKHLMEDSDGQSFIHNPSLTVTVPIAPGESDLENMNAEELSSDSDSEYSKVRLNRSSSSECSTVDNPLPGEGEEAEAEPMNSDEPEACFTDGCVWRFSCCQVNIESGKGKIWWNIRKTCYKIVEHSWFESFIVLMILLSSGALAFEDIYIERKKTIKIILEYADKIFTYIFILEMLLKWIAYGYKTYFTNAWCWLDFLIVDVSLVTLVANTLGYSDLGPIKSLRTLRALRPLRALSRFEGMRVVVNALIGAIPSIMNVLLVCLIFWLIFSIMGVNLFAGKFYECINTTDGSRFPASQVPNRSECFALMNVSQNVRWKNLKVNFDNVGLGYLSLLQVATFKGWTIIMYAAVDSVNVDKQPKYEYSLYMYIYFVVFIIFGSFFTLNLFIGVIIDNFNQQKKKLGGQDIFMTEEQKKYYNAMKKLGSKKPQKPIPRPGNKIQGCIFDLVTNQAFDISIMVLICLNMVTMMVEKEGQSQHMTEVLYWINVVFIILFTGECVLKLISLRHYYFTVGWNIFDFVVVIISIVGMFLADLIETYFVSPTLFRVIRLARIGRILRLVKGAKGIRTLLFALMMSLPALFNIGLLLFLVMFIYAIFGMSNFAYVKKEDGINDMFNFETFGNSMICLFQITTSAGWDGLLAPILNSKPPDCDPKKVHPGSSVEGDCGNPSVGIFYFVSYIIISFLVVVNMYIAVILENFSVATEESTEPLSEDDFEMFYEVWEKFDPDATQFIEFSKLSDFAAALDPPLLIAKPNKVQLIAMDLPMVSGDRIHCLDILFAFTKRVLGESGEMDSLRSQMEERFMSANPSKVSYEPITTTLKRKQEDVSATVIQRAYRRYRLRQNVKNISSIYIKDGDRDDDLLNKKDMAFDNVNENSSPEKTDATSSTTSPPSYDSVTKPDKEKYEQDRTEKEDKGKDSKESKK

CSCC[C@@H]1NC(=O)CNC(=O)[C@H](CCC(=O)O)NC(=O)[C@@H]2CSSC[C@H](NC(=O)[C@@H](N)Cc3ccc(O)cc3)C(=O)N[C@@H](CCC(N)=O)C(=O)N[C@@H](CCCCN)C(=O)N[C@@H](Cc3c[nH]c4ccccc34)C(=O)N[C@@H](CCSC)C(=O)N[C@@H](CCC(N)=O)C(=O)N[C@@H]([C@@H](C)O)C(=O)N[C@H]3CSSC[C@H](NC(=O)[C@H](C(C)C)NC1=O)C(=O)N[C@@H](CCCNC(=N)N)C(=O)N[C@@H](CC(C)C)C(=O)N[C@@H](Cc1c[nH]c4ccccc14)C(=O)N[C@H](C(=O)N[C@@H](CCCCN)C(=O)N[C@@H](CCCCN)C(=O)N[C@@H](CCCCN)C(=O)N[C@@H](CC(C)C)C(=O)N[C@@H](CC(C)C)C(=O)O)CSSC[C@H](NC(=O)[C@H](CCCCN)NC(=O)[C@H](CCCNC(=N)N)NC(=O)[C@H](CCC(=O)O)NC(=O)[C@H](CO)NC(=O)[C@H](CC(=O)O)NC3=O)C(=O)N2 [ProTX-II W7Q, W30L]
IC50 [1]: 10 nM
IC50 [2]: 3980 nM
IC50 [3]: 2000 nM

NC1=N[C@H](O)[C@H]2[C@H]3O[C@]4(O)O[C@@H]([C@@H](O)[C@@]2(N1)[C@@H]4O)[C@]3(O)CO [TTX, tetrodotoxin]
block, predominantly TTX-resistant cells [4]: < 10%
block, predominantly TTX-sensitive cells [5]: ~ 100%
block, mixed cells [6]: 29–68%

CN1CC[C@]23c4c5ccc(O)c4O[C@H]2[C@@H](O)C=C[C@H]3[C@H]1C5 [morphine]
pED50 formalin (phase II) [7]: 5.4 ± 0.22 −log g
efficacy during morphine infusion, day 7 [8]: loses its efficacy by day 7
phase II formalin flinching, morphine-tolerant rats [8]: did not significantly reduce phase II formalin flinching
block of phase 2 during morphine infusion, day 2 [9]: significant block of phase 2 on day 2

ziconotide [reference compound]
pED50 formalin (phase II) [7]: 7.1 ± 0.18 −log g
behavioral side effects [10]: whole body shakes, increased muscle tone and “serpentine” tail movement
scratching behavior [10]: did not induce scratching behavior
histamine release and hemodynamic changes [11]: induce histamine release and associated hemodynamic changes
